Where “and” joins values, the source holds several entries; their conditions need not be identical. Identical values can stand only once.
Test system: 565232-114-T-J1-PDC complex spheroid viability
Test: Anticancer human tumor 565232-114-T-J1-PDC patient-derived bladder carcinoma cell line growth inhibition [CLK]
Conditions: for viability, T/C: stronger effect = lower value
From the text: A high-throughput screen of multi-cell type tumor spheroids was designed to identify active combinations of […] and targeted small molecules. Complex spheroids include a stromal component modeled by human endothelial cells (HUVEC) and fibroblasts modeled by human mesenchymal stem cells (MSCs). The concentration ranges selected for each drug and investigational agent were based upon clinically achievable concentrations if the clinical Cmax of the agent was known.
Compounds. The drugs and investigational agents: cirtuvivint (SM08502; NSC835563), CC-671 (NSC850746), vemurafenib (NSC761431), tapotoclax (NSC804041), sotorasib (NSC818433), adagrasib (NSC831453), MRTX-1133 (NSC836407), BAY2416964 (NSC825713), copanlisib (NSC816437), inavolisib (NSC800729), abemaciclib (NSC768073), osimertinib (NSC779217), entinostat (NSC756642), eltanexor (KPT-8602, NSC794443), venetoclax (NSC766270), ceralasertib (NSC777638), bortezomib (NSC756655), olaparib (NSC753686), talazoparib (NSC767125), alisertib (NSC759677), peposertib (NSC802822), gemcitabine (NSC613327), 5-fluorouracil (NSC19893), SN-38 (NSC673596), oxaliplatin (NSC266046), paclitaxel (NSC125973), and doxorubicin (NSC123127), were obtained from the National Cancer Institute (NCI) Developmental Therapeutics Program Chemical Repository. The FDA-approved anticancer drug set is available from the Developmental Therapeutics Program at https://dtp.cancer.gov/organization/dscb/obtaining/available plates.htm. […] The stock solutions were prepared in dimethyl sulfoxide (DMSO, Sigma-Aldrich, St. Louis, MO, cat. D2650), except for the platinum complexes which were prepared in saline (Quality Biological, Gaithersburg, MD, cat. 114-055-101), at 800-fold the tested concentration and stored at -70 degrees C prior to their use. All drugs and investigational agents were tested over a range starting from a high concentration at or near the clinical Cmax and decreasing in half-log increments. If the clinical Cmax for an agent had not been determined, the highest concentration tested was 10 microM.
Cell Culture. All cells were maintained in an incubator at 37 degrees C and 5% CO2 with 95% humidity. The PDC lines were cultured according to standard operating procedures established by the NCI PDMR. Briefly, all PDCs were thawed and cultured in Matrigel-coated flasks prepared with a working solution of 1X Ham's F-12 nutrient mix, without supplementation (Invitrogen, Waltham, MA, cat. 11765054), 100 U/mL penicillin-streptomycin (Invitrogen, cat. 15140122), and 2.5% Matrigel (Corning Inc., Corning, NY, cat. 354248) for the first three passages. The 947758-054-R-J2-PDC line was cultured in 6B/Colon 1A media, which includes advanced DMEM/F-12 (Thermo Fisher Scientific, cat. 12634028), 10 mM HEPES (Thermo Fisher Scientific, cat. 15630080), 1X GlutaMAX supplement (Thermo Fisher Scientific, cat. 35050061), 0.1 mg/mL primocin (InvivoGen, cat. ant-pm-2), 10% defined fetal bovine serum, heat inactivated (HyClone Laboratories Inc., cat. SH30070.03HI), 1.25 mM N-Acetyl-L-cysteine (Sigma-Aldrich, cat. A9165), 10 mM nicotinamide (Sigma-Aldrich, cat. N0636), 1X B-27 supplement (Thermo Fisher Scientific, cat. 17504044), 1X N-2 supplement (Thermo Fisher Scientific, cat. 17502048), and 10 microM Y-27632 dihydrochloride (Tocris Bioscience, cat. 1254). The 876862-298-R-J1-PDC was cultured in 6E media, which includes all 6B/Colon 1A media components plus 50% L-WRN conditioned media (ATCC, cat. CRL-3276), 50 ng/mL recombinant human EGF recombinant protein (hEGF; Thermo Fisher Scientific, cat. PHG0311), 10 ng/mL recombinant human fibroblast growth factor 10 (hGFG-10; PeproTech, cat. 100-26), 1 ng/mL recombinant human fibroblast growth factor 2 (hFGF-2; PeproTech, cat. 100-18B), and 1 µM prostaglandin E2 (PGE2; Tocris, cat. 2296). The 227483-062-R1-J1-PDC line was cultured in Panc media, containing all 6E components except hFGF-2, with the addition of 500 nM SB-431542 (Selleckchem, cat. S1067) and 10 nM gastrin (Tocris, cat. 3006). […]
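Also: spheroids exposed to compounds for 7 days before readout.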
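For viability, T/C in this document: 100% = DMSO vehicle wells with luminescence normalized to vehicle control.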

Row | IC50 (curve of compound) | Structure (SMILES) | viability, T/C (compound 0.0316 µM) | viability, T/C (compound 0.1 µM) | viability, T/C (compound 0.316 µM) | viability, T/C (compound 1 µM) | viability, T/C (compound 3.16 µM) | viability, T/C (compound 10 µM) | further results
1 | 5.16 nM and 5.03 nM | CC(C)CC(NC(=O)C(Cc1ccccc1)NC(=O)c1cnccn1)B(O)O (stereo not drawn) | – | – | – | – | – | – | viability, T/C (compound 0.000949 µM): 97.2% and 89.6%; viability, T/C (compound 0.003 µM): 85.3% and 89.2%; viability, T/C (compound 0.00949 µM): 10.3% and 1.88%; viability, T/C (compound 0.03 µM): 4.99% and 0.69%; viability, T/C (compound 0.0949 µM): 2.74% and 2.59%; viability, T/C (compound 0.3 µM): 1.61% and 0.54%
2 | > 10000 nM | CC(Nc1ccc2c(c1)OCCn1cc(N3C(=O)OCC3C(F)F)nc1-2)C(N)=O (stereo not drawn) | 99.5% | 83.6% | 92.9% | 98.5% | 92.8% | 102% | –
3 | 65.5 nM and 18.9 nM | CCc1c2c(nc3ccc(O)cc13)-c1cc3c(c(=O)n1C2)COC(=O)[C@]3(O)CC | 66.4% and 18% | – | 18.8% and 5.03% | 5.24% and 1.76% | – | – | viability, T/C (compound 0.00316 µM): 91.1% and 106%; viability, T/C (compound 0.01 µM): 76.9% and 89.2%
4 | > 1000 nM | COc1c(OCCCN2CCOCC2)ccc2c3n(c(=NC(=O)c4cnc(N)nc4)nc12)CCN3 | 101% | 103% | 120% | 66.1% | – | – | viability, T/C (compound 0.00316 µM): 97.1%; viability, T/C (compound 0.01 µM): 78.6%
5 | 436 nM and 319 nM | NC(=O)C(=Cn1cnc(-c2cc(C(F)(F)F)cc(C(F)(F)F)c2)n1)c1cncnc1 | – | – | – | – | – | – | viability, T/C (compound 0.00949 µM): 99% and 110%; viability, T/C (compound 0.03 µM): 99.6% and 106%; viability, T/C (compound 0.0949 µM): 111% and 105%; viability, T/C (compound 0.3 µM): 71.5% and 52.6%; viability, T/C (compound 0.949 µM): 6.85% and 2.59%; viability, T/C (compound 3 µM): 1.92% and 0.42%
6 | 5900 nM and 4160 nM | Nc1ccccc1NC(=O)c1ccc(CNC(=O)OCc2cccnc2)cc1 | 103% and 80.6% | 94.5% and 89.7% | 110% and 94.7% | 106% and 113% | 117% and 65.5% | 2.78% and 0.64% | –
7 | 151 nM and 31.8 nM | Nc1ccn(C2OC(CO)C(O)C2(F)F)c(=O)n1 (stereo not drawn) | 95.5% and 50.3% | 57% and 17.7% | 36.3% and 10.3% | 35.6% and 9.39% | 37.5% and 13% | 39.9% and 13.2% | –

Second part, the compound before the results:

Row | Structure (SMILES) | IC50 (curve of compound) | viability, T/C (compound 0.0316 µM) | viability, T/C (compound 0.1 µM) | viability, T/C (compound 0.316 µM) | viability, T/C (compound 1 µM) | viability, T/C (compound 3.16 µM) | viability, T/C (compound 10 µM) | further results
8 | C#Cc1c(F)ccc2cc(O)cc(-c3ncc4c(N5CC6CCC(C5)N6)nc(OCC56CCCN5CC(F)C6)nc4c3F)c12 (stereo not drawn) | > 10000 nM | 106% and 77.8% | 92.2% and 83.3% | 103% and 102% | 93.2% and 110% | 98.7% and 94.8% | 93% and 95.2% | –
9 | C=C(F)C(=O)N1CCN(c2nc(OCC3CCCN3C)nc3c2CCN(c2cccc4cccc(Cl)c24)C3)CC1CC#N (stereo not drawn) | 5680 nM | 103% | 103% | 88.9% | 109% | 105% | 0.24% | –
10 | C=CC(=O)N1CCN(c2nc(=O)n(-c3c(C)ccnc3C(C)C)c3nc(-c4c(O)cccc4F)c(F)cc23)C(C)C1 (stereo not drawn) | > 10000 nM | 122% | 82.7% | 91.2% | 97% | 110% | 111% | –
11 | C=CC(=O)Nc1cc(Nc2nccc(-c3cn(C)c4ccccc34)n2)c(OC)cc1N(C)CCN(C)C | > 300 nM | – | – | – | – | – | – | viability, T/C (compound 0.000949 µM): 93.7% and 95.9%; viability, T/C (compound 0.003 µM): 76% and 82.3%; viability, T/C (compound 0.00949 µM): 101% and 91.3%; viability, T/C (compound 0.03 µM): 104% and 89.6%; viability, T/C (compound 0.0949 µM): 87.5% and 109%; viability, T/C (compound 0.3 µM): 112% and 110%
12 | CC(=O)O[C@H]1C(=O)[C@@]2(C)[C@H]([C@H](OC(=O)c3ccccc3)[C@]3(O)C[C@H](OC(=O)[C@H](O)[C@@H](NC(=O)c4ccccc4)c4ccccc4)C(C)=C1C3(C)C)[C@]1(OC(C)=O)CO[C@@H]1C[C@@H]2O | < 31.6 nM | 39.2% and 16.7% | 20.1% and 11.8% | 19.2% and 10.8% | 15.5% and 6.12% | 20% and 10.1% | 23.2% and 10.5% | –
13 | CC(CO)NC(=O)c1cc(-c2ccc(Cl)cc2)nn(-c2cnn(C)c2)c1=O (stereo not drawn) | > 10000 nM | 97.3% and 115% | 85.3% and 77.5% | 83.9% and 109% | 90.8% and 89.4% | 94.1% and 97.8% | 90.5% and 91.3% | –
14 | CC1(C)CCC(CN2CCN(c3ccc(C(=O)NS(=O)(=O)c4ccc(NCC5CCOCC5)c([N+](=O)[O-])c4)c(Oc4cnc5[nH]ccc5c4)c3)CC2)=C(c2ccc(Cl)cc2)C1 | 7080 nM and 9110 nM | 83.5% and 111% | 86.5% and 97.6% | 80.5% and 95.8% | 72.6% and 95.6% | 78.2% and 100% | 38.4% and 45.6% | –
15 | CC1COCCN1c1cc(C2(S(C)(=N)=O)CC2)nc(-c2ccnc3[nH]ccc23)n1 (stereo not drawn) | > 10000 nM and 6780 nM | 83.5% and 105% | 88.9% and 90.1% | 101% and 94.8% | 88% and 99.1% | 76.2% and 99.8% | 63.5% and 25.8% | –
16 | CCCS(=O)(=O)Nc1ccc(F)c(C(=O)c2c[nH]c3ncc(-c4ccc(Cl)cc4)cc23)c1F | 6490 nM | 81.4% | 88.2% | 101% | 104% | 113% | 21.5% | –
17 | CCN1CCN(Cc2ccc(Nc3ncc(F)c(-c4cc(F)c5nc(C)n(C(C)C)c5c4)n3)nc2)CC1 | > 1000 nM | 99.3% and 92.6% | 85.6% and 91.6% | 103% and 81.7% | 120% and 115% | – | – | viability, T/C (compound 0.00316 µM): 90.3% and 109%; viability, T/C (compound 0.01 µM): 84.6% and 93.8%
18 | CN1CCN(c2cc(C(=O)Nc3cc4cc(-c5cnn(C)c5)ccc4cn3)ccn2)CC1 | – | 97.6% [middle of 9 runs] | 106% [middle of 9 runs] | 19.9% [middle of 9 runs] | 1.63% [middle of 9 runs] | 0.86% [middle of 9 runs] | 0.47% [middle of 9 runs] | IC50 (compound alone, run of 07/31/2023): 212 nM [middle of 8 runs]
19 | COC1C=CCC(C)C(C)S(=O)(=O)NC(=O)c2ccc3c(c2)N(CC2CCC21)CC1(CCCc2cc(Cl)ccc21)CO3 (stereo not drawn) | 568 nM | 93.3% | 92.9% | 79.9% | 21% | 6.86% | 3.28% | –
20 | Cn1ncnc1[C@H]1c2n[nH]c(=O)c3cc(F)cc(c23)N[C@@H]1c1ccc(F)cc1 | > 100 nM and 78.6 nM | 104% and 99.3% | 105% and 37% | – | – | – | – | viability, T/C (compound 0.000316 µM): 93.9% and 110%; viability, T/C (compound 0.001 µM): 72.5% and 92.8%; viability, T/C (compound 0.00316 µM): 77.5% and 109%; viability, T/C (compound 0.01 µM): 109% and 97.4%
21 | O=C(c1cc(Cc2n[nH]c(=O)c3ccccc23)ccc1F)N1CCN(C(=O)C2CC2)CC1 | > 10000 nM | 128% and 92% | 96.3% and 94.3% | 113% and 94.3% | 90.7% and 83.8% | 95% and 117% | 122% and 58.1% | –
22 | O=c1[nH]cc(F)c(=O)[nH]1 | > 10000 nM | 91.2% and 106% | 80.1% and 80.5% | 80.7% and 124% | 88.1% and 93.1% | 134% and 80.6% | 131% and 71.9% | –
